In ChEMBL document CHEMBL1150262, “Ring size of somatostatin analogues (ODT-8) modulates receptor selectivity and binding affinity” (J Med Chem, 2008):

Legend:
[1] = target: Somatostatin receptor type 1 (Homo sapiens, UniProt P30872); test: Displacement of [125I]-[Leu8, DTrp22, Tyr25]SRIF28 from human cloned sst1 receptor
[2] = target: Somatostatin receptor type 2 (Homo sapiens, UniProt P30874); test: Displacement of [125I]-[Leu8, DTrp22, Tyr25]SRIF-28 from human cloned sst2 receptor expressed in CCL39 cells; format: cell-based
[3] = target: Somatostatin receptor type 3 (Homo sapiens, UniProt P32745); test: Displacement of [125I]-[Leu8, DTrp22, Tyr25]SRIF-28 from human cloned sst3 receptor expressed in CCL39 cells; format: cell-based
[4] = target: Somatostatin receptor type 4 (Homo sapiens, UniProt P31391); test: Displacement of [125I]-[Leu8, DTrp22, Tyr25]SRIF-28 from human cloned sst4 receptor expressed in CCL39 cells; format: cell-based
[5] = target: Somatostatin receptor type 5 (Homo sapiens, UniProt P35346); test: Displacement of [125I]-[Leu8, DTrp22, Tyr25]SRIF-28 from human cloned sst5 receptor expressed in CHOK1 cells; format: cell-based, CHO-K1
Sequence of Somatostatin receptor type 5 (P35346 whole entry): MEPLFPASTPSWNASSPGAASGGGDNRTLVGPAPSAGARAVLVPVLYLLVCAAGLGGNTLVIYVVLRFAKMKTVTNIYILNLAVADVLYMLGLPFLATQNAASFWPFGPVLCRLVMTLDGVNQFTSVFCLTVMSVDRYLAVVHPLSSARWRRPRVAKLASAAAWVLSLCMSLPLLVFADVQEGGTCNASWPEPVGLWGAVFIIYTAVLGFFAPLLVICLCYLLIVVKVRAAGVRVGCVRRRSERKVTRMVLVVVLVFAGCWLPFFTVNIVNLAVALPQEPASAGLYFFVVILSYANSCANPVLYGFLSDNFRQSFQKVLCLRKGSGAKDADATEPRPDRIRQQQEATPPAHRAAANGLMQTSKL

Sequence of Somatostatin receptor type 1 (P30872 whole entry): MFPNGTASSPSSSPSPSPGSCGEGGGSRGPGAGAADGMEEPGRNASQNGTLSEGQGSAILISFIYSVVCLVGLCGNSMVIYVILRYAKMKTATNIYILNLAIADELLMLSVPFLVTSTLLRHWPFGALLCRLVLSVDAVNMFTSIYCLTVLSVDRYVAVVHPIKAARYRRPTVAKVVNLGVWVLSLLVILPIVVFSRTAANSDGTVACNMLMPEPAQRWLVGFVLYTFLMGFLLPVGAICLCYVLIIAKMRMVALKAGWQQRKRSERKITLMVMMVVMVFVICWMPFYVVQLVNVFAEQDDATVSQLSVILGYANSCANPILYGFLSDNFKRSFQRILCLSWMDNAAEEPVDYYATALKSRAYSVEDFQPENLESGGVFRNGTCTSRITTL
Sequence of Somatostatin receptor type 2 (P30874 whole entry): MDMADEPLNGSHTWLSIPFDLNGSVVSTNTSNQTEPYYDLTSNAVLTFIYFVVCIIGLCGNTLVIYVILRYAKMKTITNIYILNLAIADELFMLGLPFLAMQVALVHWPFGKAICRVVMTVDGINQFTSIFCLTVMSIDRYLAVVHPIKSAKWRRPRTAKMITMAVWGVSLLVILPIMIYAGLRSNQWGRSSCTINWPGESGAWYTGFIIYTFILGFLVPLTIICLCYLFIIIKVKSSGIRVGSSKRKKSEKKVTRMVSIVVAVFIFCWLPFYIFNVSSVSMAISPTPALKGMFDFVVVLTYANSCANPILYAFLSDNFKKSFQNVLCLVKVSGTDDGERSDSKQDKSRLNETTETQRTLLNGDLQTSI
Sequence of Somatostatin receptor type 3 (P32745 whole entry): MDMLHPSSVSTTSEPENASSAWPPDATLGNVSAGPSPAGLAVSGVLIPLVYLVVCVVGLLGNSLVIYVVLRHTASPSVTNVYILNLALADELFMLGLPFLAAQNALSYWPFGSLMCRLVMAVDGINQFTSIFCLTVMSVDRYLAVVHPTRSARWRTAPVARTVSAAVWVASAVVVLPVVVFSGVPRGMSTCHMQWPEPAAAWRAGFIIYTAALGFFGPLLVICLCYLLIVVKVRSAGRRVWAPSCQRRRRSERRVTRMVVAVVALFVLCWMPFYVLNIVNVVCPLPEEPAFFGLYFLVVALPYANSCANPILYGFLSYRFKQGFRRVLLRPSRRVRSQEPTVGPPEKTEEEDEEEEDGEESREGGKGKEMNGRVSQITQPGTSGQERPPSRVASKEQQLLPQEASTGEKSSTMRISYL
Sequence of Somatostatin receptor type 4 (P31391 whole entry): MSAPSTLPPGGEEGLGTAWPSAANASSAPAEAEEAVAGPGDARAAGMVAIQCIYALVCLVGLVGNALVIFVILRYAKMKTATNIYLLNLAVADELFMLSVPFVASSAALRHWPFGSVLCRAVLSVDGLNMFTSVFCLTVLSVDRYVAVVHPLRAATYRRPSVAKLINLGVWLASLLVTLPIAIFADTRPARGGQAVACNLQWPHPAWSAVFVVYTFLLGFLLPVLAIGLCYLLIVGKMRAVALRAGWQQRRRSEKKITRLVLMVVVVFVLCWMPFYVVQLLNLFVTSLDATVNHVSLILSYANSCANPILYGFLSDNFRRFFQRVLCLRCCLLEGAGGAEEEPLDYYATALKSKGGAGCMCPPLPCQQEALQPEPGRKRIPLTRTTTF

| SMILES | IC50 [1] [nM] | IC50 [2] [nM] | IC50 [3] [nM] | IC50 [4] [nM] | IC50 [5] [nM] |
| --- | --- | --- | --- | --- | --- |
| CC(=O)N[C@@H]1CSSC[C@H](C(=O)O)NC(=O)[C@H](Cc2ccccc2)NC(=O)[C@H]([C@@H](C)O)NC(=O)[C@H](CCCCN)NC(=O)[C@@H](Cc2c[nH]c3ccccc23)NC(=O)[C@H](Cc2ccccc2)NC(=O)[C@H](Cc2ccccc2)NC1=O | > 1000 | 9 | 15 | 3.25 | 7.4 |
| CC(=O)N[C@@H]1CCSSC[C@@H](C(=O)O)NC(=O)[C@H](Cc2ccccc2)NC(=O)[C@H]([C@@H](C)O)NC(=O)[C@H](CCCCN)NC(=O)[C@@H](Cc2c[nH]c3ccccc23)NC(=O)[C@H](Cc2ccccc2)NC(=O)[C@H](Cc2ccccc2)NC1=O | 218 | 40 | 69 | 1.4 | 90 |
| C[C@@H](O)[C@@H]1NC(=O)[C@H](CCCCN)NC(=O)[C@@H](Cc2c[nH]c3ccccc23)NC(=O)[C@H](Cc2ccccc2)NC(=O)[C@H](Cc2ccccc2)NC(=O)[C@@H](N)CSSC[C@H](C(=O)O)NC(=O)[C@H](Cc2ccccc2)NC1=O | > 1000 | 18 | 18.5 | 8.2 | 27 |
| CC(=O)N[C@@H]1CSS[C@@H](C(=O)O)NC(=O)[C@H](Cc2ccccc2)NC(=O)[C@H]([C@@H](C)O)NC(=O)[C@H](CCCCN)NC(=O)[C@@H](Cc2c[nH]c3ccccc23)NC(=O)[C@H](Cc2ccccc2)NC(=O)[C@H](Cc2ccccc2)NC1=O | > 1000 | 4.8 | 36 | 3 | 17 |
| CC(=O)N[C@H]1SS[C@@H](C(=O)O)NC(=O)[C@H](Cc2ccccc2)NC(=O)[C@H]([C@@H](C)O)NC(=O)[C@H](CCCCN)NC(=O)[C@@H](Cc2c[nH]c3ccccc23)NC(=O)[C@H](Cc2ccccc2)NC(=O)[C@H](Cc2ccccc2)NC1=O | > 1000 | 13 | 31 | 2.2 | 21 |
| CC(=O)N[C@H]1CSSC[C@H](C(=O)O)NC(=O)[C@H](Cc2ccccc2)NC(=O)[C@H]([C@@H](C)O)NC(=O)[C@H](CCCCN)NC(=O)[C@@H](Cc2c[nH]c3ccccc23)NC(=O)[C@H](Cc2ccccc2)NC(=O)[C@H](Cc2ccccc2)NC1=O | > 1000 | 4.9 | 12 | 4.5 | 11 |
| CC(=O)N[C@H]1CSS[C@H](C(=O)O)NC(=O)[C@H](Cc2ccccc2)NC(=O)[C@H]([C@@H](C)O)NC(=O)[C@H](CCCCN)NC(=O)[C@@H](Cc2c[nH]c3ccccc23)NC(=O)[C@H](Cc2ccccc2)NC(=O)[C@H](Cc2ccccc2)NC1=O | 358 | 41 | 20 | 2 | 50 |
| CC(=O)N[C@H]1SSC[C@@H](C(=O)O)NC(=O)[C@H](Cc2ccccc2)NC(=O)[C@H]([C@@H](C)O)NC(=O)[C@H](CCCCN)NC(=O)[C@@H](Cc2c[nH]c3ccccc23)NC(=O)[C@H](Cc2ccccc2)NC(=O)[C@H](Cc2ccccc2)NC1=O | 416 | 42 | 14 | 3.1 | 46 |
| CC(=O)N[C@@H]1SSC[C@@H](C(=O)O)NC(=O)[C@H](Cc2ccccc2)NC(=O)[C@H]([C@@H](C)O)NC(=O)[C@H](CCCCN)NC(=O)[C@@H](Cc2c[nH]c3ccccc23)NC(=O)[C@H](Cc2ccccc2)NC(=O)[C@H](Cc2ccccc2)NC1=O | 79 | 33 | 6 | 1.9 | 9 |
| CC(=O)N[C@@H]1CSSC[C@@H](C(=O)O)NC(=O)[C@H](Cc2ccccc2)NC(=O)[C@H]([C@@H](C)O)NC(=O)[C@H](CCCCN)NC(=O)[C@@H](Cc2c[nH]c3ccccc23)NC(=O)[C@H](Cc2ccccc2)NC(=O)[C@H](Cc2ccccc2)NC1=O | 16 | 8 | 19 | 0.7 | 9.1 |
| C[C@@H](O)[C@@H]1NC(=O)[C@H](CCCCN)NC(=O)[C@@H](Cc2c[nH]c3ccccc23)NC(=O)[C@H](Cc2ccccc2)NC(=O)[C@H](Cc2ccccc2)NC(=O)[C@H](N)CSSC[C@H](C(=O)O)NC(=O)[C@H](Cc2ccccc2)NC1=O | > 1000 | 11 | 6.3 | 2.6 | 8.7 |
| CC(=O)N[C@@H]1CSS[C@H](C(=O)O)NC(=O)[C@H](Cc2ccccc2)NC(=O)[C@H]([C@@H](C)O)NC(=O)[C@H](CCCCN)NC(=O)[C@@H](Cc2c[nH]c3ccccc23)NC(=O)[C@H](Cc2ccccc2)NC(=O)[C@H](Cc2ccccc2)NC1=O | 540 | 18.5 | 30 | 1.5 | 51 |
| CC(=O)N[C@H]1CCSSC[C@@H](C(=O)O)NC(=O)[C@H](Cc2ccccc2)NC(=O)[C@H]([C@@H](C)O)NC(=O)[C@H](CCCCN)NC(=O)[C@@H](Cc2c[nH]c3ccccc23)NC(=O)[C@H](Cc2ccccc2)NC(=O)[C@H](Cc2ccccc2)NC1=O | 96 | 6.5 | 38 | 0.9 | 28 |
| CC(=O)N[C@@H]1SSC[C@H](C(=O)O)NC(=O)[C@H](Cc2ccccc2)NC(=O)[C@H]([C@@H](C)O)NC(=O)[C@H](CCCCN)NC(=O)[C@@H](Cc2c[nH]c3ccccc23)NC(=O)[C@H](Cc2ccccc2)NC(=O)[C@H](Cc2ccccc2)NC1=O | > 1000 | 11 | 69 | 4.4 | 50 |
| CC(=O)N[C@H]1CSSC[C@@H](C(=O)O)NC(=O)[C@H](Cc2ccccc2)NC(=O)[C@H]([C@@H](C)O)NC(=O)[C@H](CCCCN)NC(=O)[C@@H](Cc2c[nH]c3ccccc23)NC(=O)[C@H](Cc2ccccc2)NC(=O)[C@H](Cc2ccccc2)NC1=O | 22 | 49 | 7.1 | 1.3 | 26 |
| CC(=O)N[C@H]1CSS[C@@H](C(=O)O)NC(=O)[C@H](Cc2ccccc2)NC(=O)[C@H]([C@@H](C)O)NC(=O)[C@H](CCCCN)NC(=O)[C@@H](Cc2c[nH]c3ccccc23)NC(=O)[C@H](Cc2ccccc2)NC(=O)[C@H](Cc2ccccc2)NC1=O | > 1000 | 5.4 | 53 | 6 | 82 |
| CC(=O)N[C@H]1SSC[C@H](C(=O)O)NC(=O)[C@H](Cc2ccccc2)NC(=O)[C@H]([C@@H](C)O)NC(=O)[C@H](CCCCN)NC(=O)[C@@H](Cc2c[nH]c3ccccc23)NC(=O)[C@H](Cc2ccccc2)NC(=O)[C@H](Cc2ccccc2)NC1=O | > 1000 | 13 | 28 | 5 | 50 |
| CC(=O)N[C@@H]1SS[C@H](C(=O)O)NC(=O)[C@H](Cc2ccccc2)NC(=O)[C@H]([C@@H](C)O)NC(=O)[C@H](CCCCN)NC(=O)[C@@H](Cc2c[nH]c3ccccc23)NC(=O)[C@H](Cc2ccccc2)NC(=O)[C@H](Cc2ccccc2)NC1=O | 302 | 34 | 19 | 1.6 | 57 |
| CC(=O)N[C@@H]1SS[C@@H](C(=O)O)NC(=O)[C@H](Cc2ccccc2)NC(=O)[C@H]([C@@H](C)O)NC(=O)[C@H](CCCCN)NC(=O)[C@@H](Cc2c[nH]c3ccccc23)NC(=O)[C@H](Cc2ccccc2)NC(=O)[C@H](Cc2ccccc2)NC1=O | > 1000 | 3.9 | 50 | 2.6 | 60 |
| CC(=O)N[C@H]1SS[C@H](C(=O)O)NC(=O)[C@H](Cc2ccccc2)NC(=O)[C@H]([C@@H](C)O)NC(=O)[C@H](CCCCN)NC(=O)[C@@H](Cc2c[nH]c3ccccc23)NC(=O)[C@H](Cc2ccccc2)NC(=O)[C@H](Cc2ccccc2)NC1=O | > 1000 | 109 | 45 | 2.7 | 107 |
| C[C@@H](O)[C@@H]1NC(=O)[C@H](CCCCN)NC(=O)[C@@H](Cc2c[nH]c3ccccc23)NC(=O)[C@H](Cc2ccccc2)NC(=O)[C@H](Cc2ccccc2)NC(=O)C(N)CSSC[C@@H](C(=O)O)NC(=O)[C@H](Cc2ccccc2)NC1=O (single isomer, unassigned) | 14 | 14.5 | 4.5 | 1 | 9.5 |
